Source: patent US11013736B2, “Oral solid preparation and use thereof” (WUHAN LL SCIENCE AND TECHNOLOGY DEVELOPMENT CO., LTD., priority 2016, dated 2021)
“Also recorded” adds a separate entry of the source.

Tests used:
[1] = Comparative stability test (total impurity content); type: physicochemical; conditions: 25° C., 60% relative humidity; for total impurity content % at 0 months / total impurity content % at 1 month / total impurity content % at 2 months / total impurity content % at 3 months / total impurity content % at 6 months: packed
Experimental: The stability of an amorphous form, a mixture of the crystalline forms I and the crystal II, the crystalline form II and the crystal form III of the compound of formula (A) were investigated. Specifically, the amorphous form, the mixture of the crystalline form I and the crystalline form II (weight ratio 1:2), the crystalline form II and the crystalline form III were taken 200 mg respectively to be investigated as follows:
Packing: Polyvinyl chloride (PVC) material ziplock bag (the inner layer) was vacuumized, aluminum foil (the middle layer) was vacuumized, and aluminum foil desiccant (the outer layer) was vacuum and filled in with nitrogen;
Inspection conditions: 25° C., 60% relative humidity. The indicator was the total impurity content, which is determined by detection of samples three times at each time point with the average value recorded. The time points for sampling include 0, 1, 2, 3 and 6 months after packing.

[2] = Room temperature competition test between crystalline forms (ethyl acetate suspension, XRD); type: physicochemical; conditions: for Relative stability under room temperature (competition test): ethyl acetate suspension
Experimental: (1) Competition experiment between the crystalline form I and the crystalline form II
Equivalent amounts of the crystalline form I and the crystalline form II samples were mixed well, added with 0.8 ml ethyl acetate to form a suspension, stirred overnight and detected by XRD.
(2) Competition experiment between the crystalline form II and the crystalline form III
Equivalent amounts of the crystalline form II and the crystalline form III samples were mixed well, added with 0.2 ml ethyl acetate to form a suspension, which was stirred overnight to obtain the crystalline form II determined by XRD detection.
(3) Competition experiment between crystalline form I and crystalline form III
Equivalent amounts of the crystalline form I and the crystalline form III samples were mixed uniformly, added with 0.2 ml ethyl acetate to form a suspension, which was stirred overnight, to obtain the crystalline form I determined by XRD detection.

[3] = Comparative experiment of stability between crystalline form III and IV (drying overnight at room temperature, XRD); type: physicochemical
Excerpt: (4) Comparative experiment of stability between the crystalline form III and the crystalline form IV
The Crystalline form III and the crystalline form IV samples were respectively dried overnight at room temperature.

[4] = test system: spontaneously hypertensive rats; assay: Antihypertensive efficacy test in spontaneously hypertensive rats (systolic blood pressure and heart rate by implanted sensor); type: in vivo; conditions: SHR; for Systolic blood pressure compared with the control group: after 3 hours of administration; for Systolic blood pressure change, 1 hour after administration / Systolic blood pressure change, 3 hours after administration / Systolic blood pressure change, 5 hours after administration / Systolic blood pressure change, 7 hours after administration / Systolic blood pressure change, 10 hours after administration / Systolic blood pressure change, 24 hours after administration / Systolic blood pressure change, before administration: intragastric; for Systolic blood pressure change, 1 hour after administration / Systolic blood pressure change, 3 hours after administration / Systolic blood pressure change, 5 hours after administration / Systolic blood pressure change, 7 hours after administration / Systolic blood pressure change, 10 hours after administration / Systolic blood pressure change, 24 hours after administration / Heart rates change, 1 hour after administration / Heart rates change, 3 hours after administration / Heart rates change, 5 hours after administration / Heart rates change, 7 hours after administration / Heart rates change, 10 hours after administration / Heart rates change, 24 hours after administration: change vs before administration; for Systolic blood pressure change, 1 hour after administration / Systolic blood pressure change, 3 hours after administration / Systolic blood pressure change, 5 hours after administration / Systolic blood pressure change, 7 hours after administration / Systolic blood pressure change, 10 hours after administration / Systolic blood pressure change, 24 hours after administration / Systolic blood pressure change, before administration / Heart rates change, 1 hour after administration / Heart rates change, 3 hours after administration / Heart rates change, 5 hours after administration / Heart rates change, 7 hours after administration / Heart rates change, 10 hours after administration / Heart rates change, 24 hours after administration / Heart rates change, before administration: average ± standard error; for Systolic blood pressure change, before administration / Heart rates change, before administration: reference value; for Heart rates change, 1 hour after administration / Heart rates change, 3 hours after administration / Heart rates change, 5 hours after administration / Heart rates change, 7 hours after administration / Heart rates change, 10 hours after administration / Heart rates change, 24 hours after administration / Heart rates change, before administration: oral
Experimental: 12-week-old spontaneously hypertensive rats (hereinafter referred to as SHR, purchased from Beijing Weitong Lihua Experimental Animal Technology Co., Ltd.) were anesthetized with 2.5% sodium pentobarbital for intraperitoneal injection. After that, the blood pressure sensing catheter of hypertension implant was inserted into their abdominal aorta, while the implant was fixed to the abdominal wall, and then postoperative daily care is performed after suturing.
Rats with systolic blood pressure exceeding 160 mm Hg were divided into 3 groups (control group, compound (A) group and compound (B) group), wherein each group has 8 rats. The control group was administrated 0.5% sodium carboxymethylcellulose (hereinafter referred to as CMC-Na); the compound (B) group and the compound (A) group were respectively administered the compound (B) and the compound (A), both of which were dissolved by 0.5% CMC-Na, by intragastric administration, at a dose of 1 mg/kg (calculated by the effective dose of valsartan) and a volume calculated by 4 mL/kg.
The systolic blood pressure and heart rate of SHR were compared before and after administration (the systolic blood pressure and heart rate of SHR before administration as reference value), which were detected three times at each time point with the average value recorded.

[5] = Effect of tabletting processes on the crystalline form II (XRD); type: physicochemical; conditions: 50 mg, single punching machine, XRD vs crude sample
Experimental: Tabletting method: 50 mg of the crystalline form II was tableted under 20 kg and 25 kg pressure tabletting by a single punching machine.
The XRD of the obtained sample powder was compared with the XRD of the crude sample, the results are shown in FIG. 8 (from top to bottom: the crude sample, the sample after 25 kg pressure tabletting and the sample after 20 kg pressure tabletting).

[6] = Influences of high temperature and high humidity on the crystalline form II (XRD); type: physicochemical; conditions: XRD vs crude sample
Experimental: Two samples of 20 mg of the crystalline form II were respectively placed at 60° C. (sealed and shielded from light) and 85% relative humidity (exposed in the air at room temperature and shielded from light), detected by XRD after 10 days and compared with the XRD of the crude sample.

[7] = equivalent amounts, 0.2 ml ethyl acetate suspension, stirred overnight, XRD

SMILES: CCOc1nc2cccc(C(=O)OC(C)OC(=O)OCc3nc(C)c(C)nc3C)c2n1Cc1ccc(-c2ccccc2-c2noc(=O)[n-]2)cc1.[K+] (centres unmarked) [crystalline form I]
- Chemical stability compared with the amorphous form [1]: better than the amorphous form
- total impurity content % at 0 months [1]: 1.11%
- total impurity content % at 1 month [1]: 1.62%
- total impurity content % at 2 months [1]: 2.34%
- total impurity content % at 3 months [1]: 2.49%
- total impurity content % at 6 months [1]: 3.10%
- Content of the crystalline form I in the obtained product ([2]; equivalent amounts of form I and form II, 0.8 ml ethyl acetate suspension, stirred overnight, XRD): about 5%
- Relative stability under room temperature (competition test) [2]: better than that of the crystalline form III
- Stability at room temperature (drying experiment) [3]: superior to that of the crystalline form IV

SMILES: CCOc1nc2cccc(C(=O)OC(C)OC(=O)OCc3nc(C)c(C)nc3C)c2n1Cc1ccc(-c2ccccc2-c2noc(=O)[n-]2)cc1.[K+] (centres unmarked) [crystalline form IV]
- Crystal form transformation on drying at room temperature ([3]; dried at room temperature, XRD): converted to the crystalline form I; also recorded: completely transformed into the crystalline form I
- Stability at room temperature (drying experiment) [3]: poor stability

SMILES: CCOc1nc2cccc(C(=O)OC(C)OC(=O)OCc3nc(C)c(C)nc3C)c2n1Cc1ccc(-c2ccccc2-c2noc(=O)[n-]2)cc1.[K+] (single isomer, unassigned) [Compound (A)]
- Lowering of heart rate compared with the compound (B) group ([4]; 1 mg/kg): more potent with longer-lasting of lowering heart rate
- Antihypertensive effect compared with the compound (B) group ([4]; 1 mg/kg intragastric): more potent with longer-lasting antihypertensive effect
- Systolic blood pressure compared with the control group ([4]; 1 mg/kg): significantly decreased
- Systolic blood pressure change, 1 hour after administration ([4]; 1 mg/kg, 1 mg/kg): −7.0 ± 3.4 mmHg
- Systolic blood pressure change, 3 hours after administration ([4]; 1 mg/kg, 1 mg/kg): −34.3 ± 1.9 mmHg
- Systolic blood pressure change, 5 hours after administration ([4]; 1 mg/kg, 1 mg/kg): −46.5 ± 2.5 mmHg
- Systolic blood pressure change, 7 hours after administration ([4]; 1 mg/kg, 1 mg/kg): −49.4 ± 4.1 mmHg
- Systolic blood pressure change, 10 hours after administration ([4]; 1 mg/kg, 1 mg/kg): −45.3 ± 3.3 mmHg
- Systolic blood pressure change, 24 hours after administration ([4]; 1 mg/kg, 1 mg/kg): −25.9 ± 3.4 mmHg
- Systolic blood pressure change, before administration ([4]; 1 mg/kg): 0.0 ± 0.0 mmHg
- Heart rates change, 1 hour after administration ([4]; 1 mg/kg, 1 mg/kg): −3.6 ± 2.4 times/minute
- Heart rates change, 3 hours after administration ([4]; 1 mg/kg, 1 mg/kg): −5.0 ± 2.5 times/minute
- Heart rates change, 5 hours after administration ([4]; 1 mg/kg, 1 mg/kg): −10.1 ± 3.0 times/minute
- Heart rates change, 7 hours after administration ([4]; 1 mg/kg, 1 mg/kg): −17.5 ± 3.0 times/minute
- Heart rates change, 10 hours after administration ([4]; 1 mg/kg, 1 mg/kg): −25.4 ± 2.4 times/minute
- Heart rates change, 24 hours after administration ([4]; 1 mg/kg, 1 mg/kg): −28.6 ± 8 times/minute
- Heart rates change, before administration ([4]; 1 mg/kg): 0.0 ± 0.0 times/minute

SMILES: CCOc1nc2cccc(C(=O)OC(C)OC(=O)OCc3nc(C)c(C)nc3C)c2n1Cc1ccc(-c2ccccc2-c2noc(=O)[n-]2)cc1.[K+] (centres unmarked) [crystalline form II]
- Crystal form after tabletting, 20 kg pressure [5]: remains unchanged
- Crystal form after tabletting, 25 kg pressure [5]: remains unchanged
- Crystal form after 10 days at 85% relative humidity ([6]; exposed in the air at room temperature, shielded from light): remains unchanged
- Crystal form after 10 days at 60° C. ([6]; sealed and shielded from light): remains unchanged
- Chemical stability compared with the amorphous form [1]: better than the amorphous form
- total impurity content % at 0 months [1]: 1.29%
- total impurity content % at 1 month [1]: 1.43%
- total impurity content % at 2 months [1]: 1.59%
- total impurity content % at 3 months [1]: 1.82%
- total impurity content % at 6 months [1]: 1.87%
- Relative stability under room temperature (competition test) [2]: better than that of the crystalline form I; also recorded: better than that of the crystalline form III
- Stability at room temperature (drying experiment) [3]: superior to that of the crystalline form IV

SMILES: CCOc1nc2cccc(C(=O)OC(C)OC(=O)OCc3nc(C)c(C)nc3C)c2n1Cc1ccc(-c2ccccc2-c2noc(=O)[n-]2)cc1.[K+] (single isomer, unassigned) [Compound (B), reference compound]
- Systolic blood pressure compared with the control group ([4]; 1 mg/kg): significantly decreased
- Systolic blood pressure change, 1 hour after administration ([4]; 1 mg/kg, 1 mg/kg): −4.9 ± 4.8 mmHg
- Systolic blood pressure change, 3 hours after administration ([4]; 1 mg/kg, 1 mg/kg): −22.0 ± 3.6 mmHg
- Systolic blood pressure change, 5 hours after administration ([4]; 1 mg/kg, 1 mg/kg): −30.5 ± 3.5 mmHg
- Systolic blood pressure change, 7 hours after administration ([4]; 1 mg/kg, 1 mg/kg): −38.8 ± 2.3 mmHg
- Systolic blood pressure change, 10 hours after administration ([4]; 1 mg/kg, 1 mg/kg): −33.0 ± 1.7 mmHg
- Systolic blood pressure change, 24 hours after administration ([4]; 1 mg/kg, 1 mg/kg): −10.2 ± 2.1 mmHg
- Systolic blood pressure change, before administration ([4]; 1 mg/kg): 0.0 ± 0.0 mmHg
- Heart rates change, 1 hour after administration ([4]; 1 mg/kg, 1 mg/kg): −3.4 ± 2.6 times/minute
- Heart rates change, 3 hours after administration ([4]; 1 mg/kg, 1 mg/kg): −2.33 ± 2.6 times/minute
- Heart rates change, 5 hours after administration ([4]; 1 mg/kg, 1 mg/kg): −6.5 ± 2.8 times/minute
- Heart rates change, 7 hours after administration ([4]; 1 mg/kg, 1 mg/kg): −6.2 ± 3.0 times/minute
- Heart rates change, 10 hours after administration ([4]; 1 mg/kg, 1 mg/kg): −12.3 ± 2.8 times/minute
- Heart rates change, 24 hours after administration ([4]; 1 mg/kg, 1 mg/kg): −6.7 ± 2.6 times/minute
- Heart rates change, before administration ([4]; 1 mg/kg): 0.0 ± 0.0 times/minute

SMILES: CCOc1nc2cccc(C(=O)OC(C)OC(=O)OCc3nc(C)c(C)nc3C)c2n1Cc1ccc(-c2ccccc2-c2noc(=O)[n-]2)cc1.[K+] (centres unmarked) [mixture of crystalline form I and II]
- Chemical stability compared with the amorphous form [1]: better than the amorphous form
- total impurity content % at 0 months [1]: 0.90%
- total impurity content % at 1 month [1]: 1.58%
- total impurity content % at 2 months [1]: 2.20%
- total impurity content % at 3 months [1]: 2.40%
- total impurity content % at 6 months [1]: 3.29%

SMILES: CCOc1nc2cccc(C(=O)OC(C)OC(=O)OCc3nc(C)c(C)nc3C)c2n1Cc1ccc(-c2ccccc2-c2noc(=O)[n-]2)cc1.[K+] (centres unmarked) [crystalline form III]
- Chemical stability compared with the amorphous form [1]: better than the amorphous form
- total impurity content % at 0 months [1]: 1.56%
- total impurity content % at 1 month [1]: 2.55%
- total impurity content % at 2 months [1]: 2.98%
- total impurity content % at 3 months [1]: 3.34%
- total impurity content % at 6 months [1]: 3.76%
- Crystal form transformation, competition form I vs form III [2, 7]: completely transformed into the crystalline form I
- Crystal form transformation, competition form II vs form III [2, 7]: completely transformed into the crystalline form II
- Portion converted to the crystalline form I ([3]; dried overnight at room temperature, XRD): no more than 30%
- Stability at room temperature (drying experiment) [3]: superior to that of the crystalline form IV
